# Assay results: patent publication US20050233413A1, “Neuroprotective polypeptides and methods of use” (priority 2002, published 2005)
# Read-outs that look alike come from different tables or passages of the source. Where a SMILES comes first, the peptide text is derived from it. Where no end group is shown, it is not given here. [ ]: non-standard residue; d: D form.
# Experiments:
# [1] = system: Aβ and V642I-APP; type: cell-based; details: Table 5, marked **
# Text: (§1) F11 cells, the hybrid of a rat embryonic-day-13 primary cultured primary neuron and a mouse neuroblastoma cell, are one of the best models for primary cultured neurons as they carry representative characteristics of primary neurons, such as generation of action potentials without differentiation by NGF [22]. They have been used in various studies of is neuronal functions. Using these cells, the underlying mechanisms for cytotoxicity by V642I-APP have well been analyzed. Cytotoxicity by V642 mutants of APP has also been confirmed in multiple different systems. F11 cells were grown in Ham's F-12 (GibcoBRL, Gaithersburg, Md.) plus 18% fetal bovine serum (FBS; Hyclone, Logan, Utah) and antibiotics, as described previously. F11 cells (7×10^4 cell/well in a 6-well plate cultured in Ham's F-12 plus 18% FBS for 12-16 hr) were transfected with plasmids encoding FAD genes by lipofection [FAD cDNA 2 μg, LipofectAMINE 4 μl, PLUS reagent 8 μl (GibcoBRL)] in the absence of serum for 3 hr, and were incubated with Ham's F-12 plus 18% FBS for 2 hr. Then, culture media were changed to Ham's F-12 plus 10% FBS with or without HN peptides, and cells were cultured for an additional 67 hr. Seventy-two hr after transfection, cell mortality was measured by Trypan blue exclusion assay, performed as follows. Cells were suspended by pipetting gently, and 50 μl of 0.4% (finally 0.08%) Trypan blue solution (Sigma, St Louis, Mo.) was mixed with 200 μl of the cell suspension at room temperature. Stained cells were counted within 3 min after the mixture with Trypan blue solution.
# (§2) The primary culture of mouse cortical neurons was performed in poly-L-lysine-coated 24-well plates or 96-well plates (Sumitomo Bakelite, Akita, Japan), in the absence of serum and the presence of N2 supplement, as described previously. The purity of neurons by this method was >98%. Prepared neurons (for neurons seeded in 96-well plates: 2.5×10^4 or 5×10^4 cells/well, 100 μl culture medium/well; for neurons seeded in 24-well plates: 1.25×10^5 cells/well, 250 μl culture medium/well) were preincubated with or without 10 μM (in case for the experiment with 10 μM HN) synthetic HN for 16 hr, and treated with 25 μM Aβ in the presence or absence of 10 μM HN for 72 hr, respectively. As primary neurons were vulnerable to transient dryness during medium exchange, we treated neurons with 25 μM Aβ as follows. First, a half volume (50 μl for neurons in 96-well plates; 125 μl for neurons in 24-well plates) of old medium was discarded. Then, the same volume (50 μl for neurons in 96-well plates; 125 μl for neurons in 24-well plates) of prewarned fresh medium containing 10 μM HN and 50 μM Aβ (Aβ was directly resolved) was added to the culture. The Aβ peptides used at 25 μM to induce neurotoxicity formed aggregation in the medium during the cell culture at 37° C. for 72 hr. as described. The WST-8 cell viability assay was performed, using Cell Counting Kit-8 (Wako Pure Chemical Industries, Osaka, Japan), as described previously.
# (§3) Calcein assay was performed with Calcein-AM {3′,6′-di-(O-acetyl)-2′,7′-bis [N,N-bis(carboxymethyl)aminomethyl] fluorescein, tetraacetoxymethyl ester; Dojindo}, as described previously. These assays were simultaneously performed in the experiments with neurons seeded in 96-well plates, as follows. Seventy-two hours after Aβ treatment, cells were added with the mixture of 10 μl WST-8 solution and 1 μl of 600 μM Calcein-AM. After 2 hr incubation in a CO2 incubator at 37° C., WST-8 absorbance was measured as OD450. After exchanging the medium to PBS to lower the background, Calcein-specific fluorescence (ex=485 nm, em=535 nm) was observed by fluorescence microscopy or measured by a spectrofluorometer (Wallac1420 ARVOsx Multi Label Counter). […]
# [2] = system: F11 cells transfected with V642I-APP cDNA; assay: F11 cell death by V642I-APP transfection (Trypan blue exclusion); type: cell-based; details: times higher than that of HN
# Text: (§4) In one assay, transfection with V642I-APP causes cell death in F11 neuronal hybrid cells. In the other, treatment with Aβ peptides causes cell death in primary cultured cortical neurons.
# as §1
# [3] = system: primary cultured neurons treated with 25 μM Aβ1-43; type: cell-based; details: for suppression of Aβ neurotoxicity in the presence of 100 μM EFLIVIKS / concentration of full neuroprotection against Aβ1-43: 25 μM Aβ1-43; for suppression of Aβ neurotoxicity in the presence of 100 μM EFLIVIKS: EF-HN and EF-HNG at 10 μM, WST-8 and Calcein assays; for potency of neuroprotection against Aβ relative to HN: times as high as / higher than authentic HN
# Protocol: as §4, §2
# Calcein assay was performed with Calcein-AM {3′,6′-di-(O-acetyl)-2′,7′-bis [N,N-bis(carboxymethyl)aminomethyl] fluorescein, tetraacetoxymethyl ester; Dojindo}, as described previously. These assays were simultaneously performed in the experiments with neurons seeded in 96-well plates, as follows. Seventy-two hours after Aβ treatment, cells were added with the mixture of 10 μl WST-8 solution and 1 μl of 600 μM Calcein-AM. After 2 hr incubation in a CO2 incubator at 37° C., WST-8 absorbance was measured as OD450. After exchanging the medium to PBS to lower the background, Calcein-specific fluorescence (ex=485 nm, em=535 nm) was observed by fluorescence microscopy or measured by a spectrofluorometer (Wallac1420 ARVOsx Multi Label Counter). Most cell viability data using Calcein assay and WST-8 assay were obtained from neurons seeded at 5×10^4 cells/well in 96-well plates (high-density neurons) and confirmed by both assays with the cells seeded at 2.5×10^4 cells/well (low-density neurons).
# Some experiments for Calcein assay were performed with neurons seeded in 24-well plates. […] In most experiments using primary neurons, four independent experiments were performed and the means? S. D. of the results were discussed.
# [4] = Apparent stability of peptides in the culture medium; type: physicochemical; details: 72-hr incubation of 10 μM peptides in the cultured medium; data not shown
# Text: The Ser^7 residue plays a role different from that of Ser^14. S7A substitution nullified the action of HN, while Ser^7 racemation had no influence. […] Given the fact that EFLIVIKS or EFLIVKS is the established amino acid sequence to form a dimer and that EFLIVIKS alone had no cytoprotective action, it is most likely that Ser^7 is essential for HN to self-dimerize and that self-dimerization of HN is essential for the action of HN. […] This level of stability alterations could not account for the drastic potentiation of the rescue action by the fusion with EFLIVIKS.
# [5] = system: Aβ and four FAD genes (V642I-APP, NL-APP, M146L-PS1, and N141I-PS2); type: cell-based; details: for Full protection (minimal concentration that exerted full cytoprotection): Table 5, marked *
# Text: as §1, §2, §3
# [6] = system: V642I-APP, NL-APP, M146L-PS1, N141I-PS2 holoprotein expression in F11 cells; assay: Immunoblot analysis of transfected FAD gene expression; type: cell-based, rat/mouse hybrid; details: F11 cells treated with peptide
# Protocol: Immunoblot analysis was performed as described. For the analysis of transfected FAD gene expression, lysates (20 μg/lane) from cells transfected with each FAD gene (V642I-APP, NL-APP, M146L-PS1, N141I-PS2) were submitted to SDS-PAGE and were electrically blotted to a PVDF sheet. After blocking, the sheet was soaked with antibodies [for APP mutants: 5 μg/ml 22C11 (CHEMICON, Temecula, Calif.); for PS1 mutant: 1/2000 of anti-PS1 N-terminus antibody (CHEMICON) for PS2 mutant: 1/500 of anti-PS2 antibody (Cell Signaling Technology, Beverly, Mass.)] and then with HRP-labeled secondary antibodies. The antigenic bands were visualized by ECL (Amersham Pharmacia Biotech, Uppsala, Sweden).
# [7] = system: F11 cells transfected with V642I-APP, NL-APP, M146L-PS1 or N141I-PS2 cDNA; type: cell-based, rat/mouse hybrid; details: for concentration of full cytoprotection against FAD genes / IC50: each of V642I-APP; for IC50: read-out: IC50 of suppression of neuronal cell death by FAD genes
# Text: as §1
# [8] = system: Aβ and four FAD genes (V642I-APP, NL-APP, M146L-PS1, and N141I-PS2); details: as disclosed in [16]; cited from earlier work
compound,measurement,setting,value
EFLIVIKSMAPRGFSCLLLLTSEIDLPVKRRA [EF-HN],Full protection (minimal concentration that exerted full cytoprotection),[1],˜100 nM
same,potency of cytoprotection against V642I-APP relative to HN,[2],about 100 times
same,suppression of Aβ neurotoxicity in the presence of 100 μM EFLIVIKS,[3],could fully suppress Aβ neurotoxicity
same,potency of neuroprotection against Aβ relative to HN,[3],about 100 times
same,amount of peptide relative to the amount at time zero,[4],virtually unaltered
EFLIVIKSMAPAGASCLLLLTGEIDLPVKRRA [EF-AGA-HNG],Full protection (minimal concentration that exerted full cytoprotection),[5],˜10 pM
same,IC50,[3],~0.001 nM
same,concentration of full neuroprotection against Aβ1-43,[3],0.01 nM
same,"CMV-promoter-driven expression of V642I-APP, NL-APP, M146L-PS1, or N141I-PS2 holoprotein",[6],little or only marginal alteration
same,concentration of full cytoprotection against FAD genes,[7],10 pM
"CC[C@H](C)[C@H](NC(=O)[C@H](CCC(=O)O)NC(=O)[C@@H](CO)NC(=O)[C@@H](NC(=O)[C@H](CC(C)C)NC(=O)[C@H](CC(C)C)NC(=O)[C@H](CC(C)C)NC(=O)[C@H](CC(C)C)NC(=O)[C@H](CS)NC(=O)[C@H](CO)NC(=O)[C@H](C)NC(=O)CNC(=O)[C@H](C)NC(=O)[C@@H]1CCCN1C(=O)[C@H](C)NC(=O)[C@@H](N)CCSC)[C@@H](C)O)C(=O)N[C@@H](CC(=O)O)C(=O)N[C@@H](CC(C)C)C(=O)N1CCC[C@H]1C(=O)N[C@H](C(=O)N[C@@H](CCCCN)C(=O)N[C@@H](CCCNC(=N)N)C(=O)N[C@@H](CCCNC(=N)N)C(=O)N[C@@H](C)C(=O)O)C(C)C [AGA-(D-Ser14)HN, MAPAGASCLLLLT(D-Ser)EIDLPVKRRA] (H-MAPAGASCLLLLT[dS]EIDLPVKRRA-OH; N-terminus and C-terminus assumed)",concentration of full cytoprotection,[5],100 pM
same,Full protection (minimal concentration that exerted full cytoprotection),[5],100 to 300 pM
same,"CMV-promoter-driven expression of V642I-APP, NL-APP, M146L-PS1, or N141I-PS2 holoprotein",[6],not affected
"PRGFSCLLLLTSEIDLP [HN17, Pro3-Pro19 region of HN]",cytoprotection potency compared with authentic HN (in words),[8],as potent in cytoprotection as authentic HN
MAPRGFSCLLLLT(D-S)EIDLPVKRRA [D-Ser14 HN],Full protection (minimal concentration that exerted full cytoprotection),[5],˜10 nM
same,concentration of full neuroprotection against Aβ1-43,[3],1 to 10 nM
same,potency of neuroprotection against Aβ relative to HN,[3],100-1000 times
same,"CMV-promoter-driven expression of V642I-APP, NL-APP, M146L-PS1, or N141I-PS2 holoprotein",[6],did not suppress
same,concentration of full suppression of cell death by FAD mutants,[7]; V642I-APP,10 nM
same,cytoprotective action against FAD genes (in words),[7]; V642I-APP,virtually identical to that of HNG
"CC[C@H](C)[C@H](NC(=O)[C@H](CCC(=O)O)NC(=O)[C@@H](CO)NC(=O)[C@@H](NC(=O)[C@H](CC(C)C)NC(=O)[C@H](CC(C)C)NC(=O)[C@H](CC(C)C)NC(=O)[C@H](CC(C)C)NC(=O)[C@H](CS)NC(=O)[C@H](CO)NC(=O)[C@H](C)NC(=O)CNC(=O)[C@H](C)NC(=O)[C@@H]1CCCN1)[C@@H](C)O)C(=O)N[C@@H](CC(=O)O)C(=O)N[C@@H](CC(C)C)C(=O)N1CCC[C@H]1C(=O)O [AGA-(D-Ser14)HN17, PAGASCLLLLT(D-Ser)EIDLP] (H-PAGASCLLLLT[dS]EIDLP-OH; N-terminus and C-terminus assumed)",IC50,[5],0.01 to 0.1 nM
same,action potency compared with another peptide (in words),[5],as potent as AGAD-Ser^14)HN
same,Full protection (minimal concentration that exerted full cytoprotection),[5],˜100 pM
same,"CMV-promoter-driven expression of V642I-APP, NL-APP, M146L-PS1, or N141I-PS2 holoprotein",[6],did not suppress
same,concentration of full cytoprotection against FAD genes,[7],100 pM
same,IC50,[7],~0.01 nM
EFLIVIKSMAPRGFSCLLLLTGEIDLPVKRRA [EF-HNG],IC50,[5],0.01 to 0.1 nM
same,Full protection (minimal concentration that exerted full cytoprotection),[5],˜1 nM
same,concentration of full neuroprotection against Aβ1-43,[3],1 nM
same,suppression of Aβ neurotoxicity in the presence of 100 μM EFLIVIKS,[3],could fully suppress Aβ neurotoxicity
same,IC50,"[3]; both Calcein fluorescence and WST-8 absorbance assays, read-out: IC50 of cytoprotection against Aβ1-43",~0.1 nM
same,amount of peptide relative to the amount at time zero,[4],virtually unaltered
same,IC50,[7],~0.01 nM
MAPRGF(D-Ser)CLLLLT(D-Ser)EIDLPVKRRA (MAPRGF[dS]CLLLLT[dS]EIDLPVKRRA) [D-Ser7/14 HN],Full protection (minimal concentration that exerted full cytoprotection),[5],˜10 nM
same,cytoprotective action against FAD genes (in words),[7]; V642I-APP,virtually identical to those of (D-Ser^14)HN
